According to ChEMBL document CHEMBL5344411, “Phenotypic screening-based drug discovery of furan-2-carboxylic acid derivatives for the amelioration of type 2 diabetes mellitus (T2DM)” (Eur J Med Chem, 2023):
The source made the active and inactive calls. The rule behind the calls is not given here.

What was measured:
Hepatocyte [1] = assay: Inhibition of gluconeogenesis in Sprague-Dawley rat hepatocytes at 10 uM incubated for 1.5 hrs followed by sodium pyruvate and sodium lactate addition and measured after 4 hrs by colorimetric analysis relative to control; type: functional; settings: time 5.5 hrs
Mus musculus [2] = assay: Antihyperglycemic activity in diabetic ob/ob mouse assessed as reduction in non-fasting blood glucose level at 15 mg/kg administered via gavage qd for 24 days and measured on day 24; type: functional, organism-based; settings: time 24.0 day
Mus musculus [3] = assay: Inhibition of gluconeogenesis in CD-1 mouse assessed as decrease in blood glucose level at 50 mg/kg administered via gavage at 2 hrs prior to pyruvate sodium challenge and measured for 2 hrs by pyruvate tolerance test; type: functional, organism-based; settings: time 4.0 hrs
[4] = Toxicity in diabetic ob/ob mouse assessed as effect on body weight at 15 mg/kg administered via gavage qd for 24 days; type: organism-based; settings: in vivo, po, 576 h, time 24 day
[5] = Toxicity in diabetic ob/ob mouse assessed as effect on daily food intake at 15 mg/kg administered via gavage qd for 24 days; type: organism-based; settings: in vivo, po, 576 h, time 24 day
Mus musculus [6] = assay: Inhibition of gluconeogenesis in CD-1 mouse assessed as decrease in blood glucose level at 50 mg/kg administered via gavage at 1 hr prior to pyruvate sodium challenge and measured for 2 hrs by pyruvate tolerance test; type: functional, organism-based; settings: time 3.0 hrs
Hepatocyte [7] = assay: Inhibition of gluconeogenesis in Sprague-Dawley rat hepatocytes at 3 uM incubated for 1.5 hrs followed by sodium pyruvate and sodium lactate addition and measured after 4 hrs by colorimetric analysis relative to control; type: functional; settings: time 5.5 hrs
Mus musculus [8] = assay: Antihyperglycemic activity in diabetic ob/ob mouse assessed as reduction in fasting blood glucose level at 15 mg/kg administered via gavage qd for 24 days and measured on day 24; type: functional, organism-based; settings: time 24.0 day
Hepatocyte [9] = assay: Inhibition of gluconeogenesis in Sprague-Dawley rat hepatocytes at 1 uM incubated for 1.5 hrs followed by sodium pyruvate and sodium lactate addition and measured after 4 hrs by colorimetric analysis relative to control; type: functional; settings: time 5.5 hrs
Hepatocyte [10] = assay: Inhibition of gluconeogenesis in Sprague-Dawley rat hepatocytes at 0.3 uM incubated for 1.5 hrs followed by sodium pyruvate and sodium lactate addition and measured after 4 hrs by colorimetric analysis relative to control; type: functional; settings: time 5.5 hrs

SMILES: C=CCc1ccc(OCc2ccc(C(=O)Nc3cccc(C)c3)o2)c(OC)c1
- fold change (FC) (Hepatocyte [1]): 0.83

SMILES: COc1cc(CC(=O)N(C)C)ccc1OCc1ccc(C(=O)O)o1
- fold change (FC) (Hepatocyte [1]): 1.15

SMILES: C=CCc1ccc(OCc2ccc(C(=O)O)o2)c(OC)c1
- Activity (Mus musculus [2]): Active
- inhibition (Mus musculus [3]): Active
- Activity [4]: Non-Toxic
- Activity [5]: Non-Toxic
- inhibition (Mus musculus [6]): Active
- fold change (FC) (Hepatocyte [7]): 0.73
- Activity (Mus musculus [8]): Active
- fold change (FC) (Hepatocyte [9]): 0.92
- fold change (FC) (Hepatocyte [1]): 0.57
- fold change (FC) (Hepatocyte [10]): 0.96

SMILES: COc1ccccc1OCc1ccc(C(=O)O)o1
- fold change (FC) (Hepatocyte [1]): 0.99

SMILES: CCCc1cccc(OC)c1OCc1ccc(C(=O)O)o1
- fold change (FC) (Hepatocyte [1]): 0.67

SMILES: COc1cc(CCC(=O)N(C)C)ccc1OCc1ccc(C(=O)O)o1
- fold change (FC) (Hepatocyte [1]): 0.9

SMILES: C=CCc1ccc(OCc2ccc(C(=O)O)o2)cc1
- fold change (FC) (Hepatocyte [1]): 0.6

SMILES: CCCc1ccc(OCc2ccc(C(=O)O)o2)c(OC)c1
- inhibition (Mus musculus [3]): Active
- fold change (FC) (Hepatocyte [7]): 0.75
- fold change (FC) (Hepatocyte [9]): 1.05
- fold change (FC) (Hepatocyte [1]): 0.65
- fold change (FC) (Hepatocyte [10]): 1.19

SMILES: C=CCc1ccc(OCc2ccc(C(=O)N(C)C)o2)c(OC)c1
- fold change (FC) (Hepatocyte [1]): 0.87

SMILES: C=CCc1ccc(OCc2ncc(C(=O)O)s2)c(OC)c1
- fold change (FC) (Hepatocyte [1]): 1.33

SMILES: CCCc1ccc(OCc2ccc(C(=O)O)o2)c(NC(C)=O)c1
- fold change (FC) (Hepatocyte [1]): 0.95

SMILES: CNC(=O)/C=C/c1ccc(OCc2ccc(C(=O)O)o2)c(OC)c1
- fold change (FC) (Hepatocyte [1]): 0.85

SMILES: CCCc1ccc(OCc2ccc(C(=O)O)o2)c(NC)c1
- inhibition (Mus musculus [6]): Active
- fold change (FC) (Hepatocyte [7]): 0.56
- fold change (FC) (Hepatocyte [9]): 0.81
- fold change (FC) (Hepatocyte [1]): 0.41
- fold change (FC) (Hepatocyte [10]): 1.02

SMILES: CCCc1ccc(OCc2ccc(C(=O)O)o2)c(OCCn2cccc2)c1
- fold change (FC) (Hepatocyte [1]): 1.28

SMILES: Cc1cc(Br)ccc1OCc1ccc(C(=O)O)o1
- inhibition (Mus musculus [6]): Active
- fold change (FC) (Hepatocyte [7]): 0.37
- fold change (FC) (Hepatocyte [9]): 1.01
- fold change (FC) (Hepatocyte [1]): 0.33
- fold change (FC) (Hepatocyte [10]): 0.93

SMILES: CNC(=O)Cc1ccc(OCc2ccc(C(=O)O)o2)c(OC)c1
- fold change (FC) (Hepatocyte [1]): 1.08

SMILES: C=CCc1ccc(OCc2ccc(C(=O)N3CCOCC3)o2)c(OC)c1
- fold change (FC) (Hepatocyte [1]): 0.97

SMILES: COc1cc(Cl)ccc1OCc1ccc(C(=O)O)o1
- inhibition (Mus musculus [6]): Active
- fold change (FC) (Hepatocyte [7]): 0.51
- fold change (FC) (Hepatocyte [9]): 0.78
- fold change (FC) (Hepatocyte [1]): 0.33
- fold change (FC) (Hepatocyte [10]): 1.02
